Test results as given in ChEMBL document CHEMBL4152224, “The Identification of Potent, Selective, and Orally Available Inhibitors of Ataxia Telangiectasia Mutated (ATM) Kinase: The Discovery of AZD0156 (8-{6-[3-(Dimethylamino)propoxy]pyridin-3-yl}-3-methyl-1-(tetrahydro-2 H-pyran-4-yl)-1,3-dihydro-2 H-imidazo[4,5- c]quinolin-2-one)” (J Med Chem, 2018).
Converted amounts (≈) assume the structure as drawn.

Legend:
[1] = in vivo; conditions: dog
[2] = in vitro; conditions: dog, MDCK-MDR1
Description: Efflux ratio of apparent permeability across basolateral to apical over apical to basolateral side in MDCK cells overexpressing MDR1

[3] = target: Voltage-gated inwardly rectifying potassium channel KCNH2 (Homo sapiens, UniProt Q12809); experiment: Inhibition of human ERG by electrophysiology assay
Chain of Voltage-gated inwardly rectifying potassium channel KCNH2 (Q12809 whole entry): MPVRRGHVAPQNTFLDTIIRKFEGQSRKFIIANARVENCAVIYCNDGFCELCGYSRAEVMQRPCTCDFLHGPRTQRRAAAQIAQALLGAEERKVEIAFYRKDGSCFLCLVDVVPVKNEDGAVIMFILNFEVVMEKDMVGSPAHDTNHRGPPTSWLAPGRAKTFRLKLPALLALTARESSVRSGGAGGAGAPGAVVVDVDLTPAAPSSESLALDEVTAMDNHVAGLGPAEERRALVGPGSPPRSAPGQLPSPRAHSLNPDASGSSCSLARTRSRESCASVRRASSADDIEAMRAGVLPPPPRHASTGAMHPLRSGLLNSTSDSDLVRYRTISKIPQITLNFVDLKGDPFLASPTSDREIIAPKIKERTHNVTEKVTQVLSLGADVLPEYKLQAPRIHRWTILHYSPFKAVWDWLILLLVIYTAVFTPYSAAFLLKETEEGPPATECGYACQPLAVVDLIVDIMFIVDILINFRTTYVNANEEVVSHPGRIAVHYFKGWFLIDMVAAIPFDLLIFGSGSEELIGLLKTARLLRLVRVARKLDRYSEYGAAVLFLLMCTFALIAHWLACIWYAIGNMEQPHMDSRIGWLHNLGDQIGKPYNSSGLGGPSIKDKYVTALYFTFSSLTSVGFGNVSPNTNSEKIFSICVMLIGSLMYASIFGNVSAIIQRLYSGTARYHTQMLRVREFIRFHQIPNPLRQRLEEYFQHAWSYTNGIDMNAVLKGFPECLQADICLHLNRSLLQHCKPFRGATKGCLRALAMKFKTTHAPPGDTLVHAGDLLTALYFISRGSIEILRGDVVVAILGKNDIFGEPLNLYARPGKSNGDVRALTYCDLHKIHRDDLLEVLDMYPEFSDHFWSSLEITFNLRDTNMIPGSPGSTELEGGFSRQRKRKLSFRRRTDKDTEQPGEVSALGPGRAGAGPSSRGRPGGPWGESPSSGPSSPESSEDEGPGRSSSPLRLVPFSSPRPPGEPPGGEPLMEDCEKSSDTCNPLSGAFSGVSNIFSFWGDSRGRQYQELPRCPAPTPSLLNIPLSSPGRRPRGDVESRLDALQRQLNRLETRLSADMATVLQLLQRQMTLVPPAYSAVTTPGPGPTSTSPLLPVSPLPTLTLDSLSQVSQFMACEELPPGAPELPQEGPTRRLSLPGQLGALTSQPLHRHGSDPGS

[4] = Oral bioavailability in rat; type: ADME, organism-based; conditions: in vivo
[5] = Dissociation constant, pKa of the compound; type: physicochemical
[6] = Intrinsic clearance in rat hepatocytes assessed per million cells
[7] = Apparent permeability across apical to basolateral side in MDCK cells overexpressing MDR1; type: ADME, cell-based, Canis lupus familiaris; conditions: dog
[8] = in vivo; conditions: dog; remark: listed apart in the source
[9] = Volume of distribution at steady state in rat; type: ADME, organism-based; conditions: in vivo, read-out: Vdss
[10] = Buffer/octanol partition coefficient, log D of the compound at pH 7.4 by shake flask method; type: physicochemical
[11] = in vivo; conditions: rat
[12] = in vivo; conditions: rat; remark: listed apart in the source
[13] = target: Serine/threonine-protein kinase ATR (Homo sapiens, UniProt Q13535)
Chain of Serine/threonine-protein kinase ATR (Q13535 whole entry): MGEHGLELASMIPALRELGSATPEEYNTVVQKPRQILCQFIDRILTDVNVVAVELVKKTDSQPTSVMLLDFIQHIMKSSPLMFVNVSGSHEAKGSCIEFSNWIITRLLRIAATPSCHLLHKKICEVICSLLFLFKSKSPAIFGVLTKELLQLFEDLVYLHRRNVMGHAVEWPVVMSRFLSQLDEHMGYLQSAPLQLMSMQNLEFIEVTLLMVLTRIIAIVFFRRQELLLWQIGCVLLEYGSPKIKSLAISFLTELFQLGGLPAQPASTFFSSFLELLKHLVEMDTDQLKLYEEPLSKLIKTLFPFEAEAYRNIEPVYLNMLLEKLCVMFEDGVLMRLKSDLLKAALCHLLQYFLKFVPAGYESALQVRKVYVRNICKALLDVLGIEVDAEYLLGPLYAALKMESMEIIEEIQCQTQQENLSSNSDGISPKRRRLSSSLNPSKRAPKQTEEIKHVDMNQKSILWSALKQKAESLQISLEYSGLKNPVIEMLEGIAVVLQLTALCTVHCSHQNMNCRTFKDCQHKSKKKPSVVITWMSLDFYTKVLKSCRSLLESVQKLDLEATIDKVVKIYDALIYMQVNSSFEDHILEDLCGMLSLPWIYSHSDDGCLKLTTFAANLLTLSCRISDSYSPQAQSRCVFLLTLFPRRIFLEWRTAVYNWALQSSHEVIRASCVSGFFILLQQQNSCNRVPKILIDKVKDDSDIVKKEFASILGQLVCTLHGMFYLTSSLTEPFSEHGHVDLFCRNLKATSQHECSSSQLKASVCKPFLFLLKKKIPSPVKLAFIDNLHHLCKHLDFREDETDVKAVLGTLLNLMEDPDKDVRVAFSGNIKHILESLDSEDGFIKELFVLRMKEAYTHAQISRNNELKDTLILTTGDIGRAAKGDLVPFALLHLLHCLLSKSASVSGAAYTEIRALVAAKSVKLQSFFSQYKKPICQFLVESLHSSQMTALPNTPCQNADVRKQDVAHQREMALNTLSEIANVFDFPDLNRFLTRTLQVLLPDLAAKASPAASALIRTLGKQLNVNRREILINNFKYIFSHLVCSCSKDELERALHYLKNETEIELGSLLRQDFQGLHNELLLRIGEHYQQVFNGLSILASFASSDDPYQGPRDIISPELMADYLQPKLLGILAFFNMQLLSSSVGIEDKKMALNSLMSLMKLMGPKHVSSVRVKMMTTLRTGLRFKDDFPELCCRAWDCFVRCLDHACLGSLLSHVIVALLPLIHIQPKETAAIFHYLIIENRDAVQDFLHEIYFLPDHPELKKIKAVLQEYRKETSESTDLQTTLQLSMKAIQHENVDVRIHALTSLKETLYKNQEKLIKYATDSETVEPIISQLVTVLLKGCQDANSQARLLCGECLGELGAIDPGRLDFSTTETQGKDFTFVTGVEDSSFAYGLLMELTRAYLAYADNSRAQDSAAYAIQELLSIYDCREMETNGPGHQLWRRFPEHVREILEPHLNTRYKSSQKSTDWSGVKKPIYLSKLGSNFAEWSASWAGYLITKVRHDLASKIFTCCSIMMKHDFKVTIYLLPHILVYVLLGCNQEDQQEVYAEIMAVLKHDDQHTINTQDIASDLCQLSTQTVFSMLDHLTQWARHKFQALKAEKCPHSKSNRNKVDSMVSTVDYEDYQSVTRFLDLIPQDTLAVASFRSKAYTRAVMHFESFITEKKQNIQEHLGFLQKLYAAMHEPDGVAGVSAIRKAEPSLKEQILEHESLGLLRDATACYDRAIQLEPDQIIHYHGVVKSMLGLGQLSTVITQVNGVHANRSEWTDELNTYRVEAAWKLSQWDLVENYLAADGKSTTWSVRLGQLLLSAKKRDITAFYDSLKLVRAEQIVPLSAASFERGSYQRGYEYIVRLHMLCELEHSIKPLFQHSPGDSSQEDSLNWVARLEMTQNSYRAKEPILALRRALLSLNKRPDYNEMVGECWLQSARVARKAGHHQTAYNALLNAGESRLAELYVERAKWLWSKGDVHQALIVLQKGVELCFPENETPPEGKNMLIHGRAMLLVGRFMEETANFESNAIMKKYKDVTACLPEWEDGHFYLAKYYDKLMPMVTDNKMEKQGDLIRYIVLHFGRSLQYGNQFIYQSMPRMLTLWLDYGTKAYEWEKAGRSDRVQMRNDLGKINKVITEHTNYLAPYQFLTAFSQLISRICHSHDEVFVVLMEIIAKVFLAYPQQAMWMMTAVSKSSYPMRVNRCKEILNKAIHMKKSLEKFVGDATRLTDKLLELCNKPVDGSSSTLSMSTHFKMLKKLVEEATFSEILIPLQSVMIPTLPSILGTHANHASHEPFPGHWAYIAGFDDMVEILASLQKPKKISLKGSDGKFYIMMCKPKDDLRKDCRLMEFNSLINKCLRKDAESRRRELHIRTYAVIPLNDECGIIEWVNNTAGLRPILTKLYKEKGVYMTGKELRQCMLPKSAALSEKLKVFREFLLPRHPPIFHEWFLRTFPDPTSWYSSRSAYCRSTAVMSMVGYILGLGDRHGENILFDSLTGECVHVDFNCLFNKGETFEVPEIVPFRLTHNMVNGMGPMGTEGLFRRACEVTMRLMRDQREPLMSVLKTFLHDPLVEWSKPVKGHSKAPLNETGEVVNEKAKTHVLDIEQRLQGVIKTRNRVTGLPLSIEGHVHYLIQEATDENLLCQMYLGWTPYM

[14] = Thermodynamic solubility of the compound in 0.1M aqueous phosphate buffer at pH 7.4 after 24 hrs by LC-UV analysis; type: physicochemical; conditions: read-out: Therm_solubility
[15] = Intrinsic clearance in human hepatocytes assessed per million cells
[16] = Oral bioavailability in dog; type: ADME, organism-based, Canis lupus familiaris; conditions: in vivo
[17] = Volume of distribution at steady state in dog; type: ADME, organism-based, Canis lupus familiaris; conditions: in vivo, read-out: Vdss
[18] = organism: Homo sapiens; experiment: Selectivity ratio of IC50 for ATR derived from human HeLa cell cytoplasmic extract to IC50 for ATM derived from human HeLa cell nuclear extract
[19] = organism: Homo sapiens; experiment: Selectivity ratio of IC50 for mTOR derived from human HeLa cells to IC50 for ATM derived from human HeLa cell nuclear extract
[20] = organism: Homo sapiens; experiment: Selectivity ratio of IC50 for PI3K derived from human HeLa cells to IC50 for ATM derived from human HeLa cell nuclear extract
[21] = target: T1, Serine-protein kinase ATM (Homo sapiens, UniProt Q13315); experiment: Inhibition of ATM derived from human HeLa cell nuclear extract using glutathione S-transferase p53N66 as substrate preincubated for 10 mins followed by ATP addition and subsequent incubation for 1 hr measured after 1.5 hrs by ELISA
[22] = organism: Homo sapiens; experiment: Selectivity ratio of IC50 for DNA-PK derived from human HeLa cells to IC50 for ATM derived from human HeLa cell nuclear extract
[23] = target: T1, Serine-protein kinase ATM
[24] = Apparent permeability across apical to basolateral side in human Caco2 cells; type: ADME, cell-based; conditions: Caco-2

efflux ratio [2]	bioavailability [4]	hepatocyte CLint [6]	Papp A→B [7]	Vd [9]	logD [10]	half-life [11]	clearance [12]	IC50 [13]	solubility thermodynamic at 24 h [14]	hepatocyte CLint [15]	SMILES	IC50 [3]	other results
3	50%	5.1 µL/min/1e6 cells	7.8 ×10⁻⁶ cm/s	5.7 L/kg	1.6	5 h	19.5 mL/min/kg	> 30 µM	540 µM (≈ 249 µg/mL)	8.7 µL/min/1e6 cells	CO[C@H]1C[C@@H](n2c(=O)n(C)c3cnc4ccc(-c5ccc(OCCCN(C)C)nc5)cc4c32)C1	> 33 µM	half-life [1]: 5 h; pKa [5]: 9.5; clearance [8]: 27.6 mL/min/kg; bioavailability [16]: 65%; Vd [17]: 11 L/kg
											CN1CCN(CCC(=O)Nc2ccc3c(c2)Sc2cccc(-c4cc(=O)cc(N5CCOCC5)o4)c2S3)CC1		Ratio IC50 [18]: > 300; Ratio IC50 [19]: > 300; Ratio IC50 [20]: > 300; IC50 [21]: 0.003 µM; Ratio IC50 [22]: > 300
0.4	> 100%	4.5 µL/min/1e6 cells	38 ×10⁻⁶ cm/s	0.98 L/kg	2.7	2.7 h	22.5 mL/min/kg	> 30 µM	37 µM (≈ 15.6 µg/mL)	8.8 µL/min/1e6 cells	COCc1ccc(-c2cc3c(cc2F)ncc2c3n([C@H]3C[C@@H](OC)C3)c(=O)n2C)cn1	9 µM	IC50 [23]: 0.1 µM
		9.4 µL/min/1e6 cells	30 ×10⁻⁶ cm/s		2.2				17 µM (≈ 6.13 µg/mL)	< 4.9 µL/min/1e6 cells	Cn1c(=O)n(C2CCOCC2)c2c3cc(-c4cccnc4)ccc3ncc21	11 µM	Papp A→B [24]: 60 ×10⁻⁶ cm/s
